These results are taken from patent US6897316B2, “Substituted 2-phenyl-4-quinolone-3-carboxylic acid compounds and their use as antitumor agents” (China Medical University, priority 2003, dated 2005).

Assay [1] has as its system panel of 39 human cancer cell lines. Nature of the assay: Growth inhibition against human cancer cell line panel (Sulforhodamine B, 48 h). Type of assay: cell-based. The procedure:
Compound IX-8 was evaluated growth inhibition activities against a panel of 39 human cancer cell lines including Human breast cancer MDA-MB-231 and the following human cancer cell lines were generously distributed by the National Cancer Institute (Frederick, Md.): lung cancer, NCI-H23, NCI-H226, NCI-H522, NCI-H460, A-549, DMS273 and DMS114; colon cancer, HGC-2998, KM-12, HT-29, HCT-15, and HCT-116; ovarian cancer, OVCAR-3, OVCAR-4, OVCAR-5, OVCAR-8, and SKOV-3; breast cancer, MCF-7; renal cancer, RXF-631L and ACHN; melanoma, LOX-IMVI; brain tumor, U251, SF-295, SF-539, SF-268, SNB-75, and SNB-78, and prostate cancer, DU-145 and PC-3. […]
The details of measuring cell growth inhibition are described elsewhere [Monks, A., Scudiero, D., Skehan, P., Shoemaker, R., Paull, K., Vistica, D., Hose, C., Langley, J., Cronise, P., Vaigro-Wolff, A., Gray-Goodrich, M., Campbell, H., Mayo, J., Boyd, M. Feasibility of a high-flux anticancer drug screen using a diverse panel of cultured human tumor cell lines. […] Then, the cell growth was determined according to the Sulforhodamine B assay, described by Skehan et al [Skehan, P., Storeng, R., Scudiero, D., Monks, A., McMahon, J., Vistica, D., Warren, J. T., Bokesch, H., Kenney, S., Boyd, M. R. New calorimetric cytotoxicity assay for anticancer-drug screening. […]

Assay [2] relates to ileocecal carcinoma (HCT-8) cell line. The assay can be described thus: Activity against HTCL replication, HCT-8. Type of assay: cell-based, human. As to conditions: mean ED50. The procedure:
Compounds were assayed for in vitro cytotoxicity in a panel of human tumor cell lines at the School of Pharmacy, University of North Carolina at Chapel Hill, according to procedures described previously [Lee, K. H., Lin, Y. M., Wu, T. S., Zhang, D. C., Yamagishi, T., Hayashi, T., Hall, I. H., Chang, J. J., Wu, R. Y., Yang, T. H. The cytotoxic principles of Prunella vulgaris, Psychotria serpens, and Hyptis capitata: Ursolic acid and related derivatives. Planta Med. 1988, 54, 308-11; Boyd, M. R. Status of the National Cancer Institute preclinical antitumor drug discovery screen: implications for selection of new agents for clinical trial. Devita, V. T., Jr. Hellman, S., Rosenberg, S. A., Eds, J. B. Cancer: Principles and Practice of Oncology Update, 1989, 3: pp1-12, Lippincoft: Philadephia; Monks, A., Scudiero, D., Skehan, P., Shoemaker, R., Paull, K., Vistica, D., Hose, C., Langley, J., Cronise, P., Vaigro-Wolff, A., Gray-Goodrich, M., Campbell, H., Mayo, J., Boyd, M. Feasibility of a high-flux anticancer drug screen using a diverse panel of cultured human tumor cell lines. J. Natl. Cancer Inst. 1991, 83, 757-66.] […]

Structures are written as SMILES. Converted amounts (≈) assume the structure as drawn.

`COc1ccc2[nH]c(-c3cccc(F)c3)c(C(=O)O)c(=O)c2c1` [IX-8, 3′-Fluoro-6-methoxy-2-phenyl-4-quinolone-3-carboxylic acid]: in assay [1] (cell line panel), the “activity against cancer cell line panel in words” value is “active against most cancer cell lines”. Also, the “MG-MID (mean growth midpoint) of log GI50” value in assay [1] (mean over cell line panel, 10^−4 to 10^−8 M) is −6.22 M. Further, the “ED50 HCT-8” value in assay [2] is 0.14 µg/mL (≈ 0.447 µM).
